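Tested at 5 concentrations; 48 h exposure; 96-well plates; endpoints linearly interpolated, else capped at highest concentration. At the GI50, growth is halved.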 The source made the active and inactive calls. Cut-off read from the data, not from the text of the source: active = GI50 up to about 1.1 µM and inactive = higher.
Assays:
Assay in all cases: NCI anticancer screen, dose series, 48 h
NCI-H226 = tested on: NCI-H226
TK-10 = tested on: TK-10
SK-MEL-5 = tested on: SK-MEL-5
EKVX = tested on: EKVX
MOLT-4 = tested on: MOLT-4
OVCAR-3 = tested on: OVCAR-3
U-251 = tested on: U-251
A498 = tested on: A498
NCI-H522 = tested on: NCI-H522
K562 = tested on: K562
COLO 205 = tested on: COLO 205
UACC-62 = tested on: UACC-62
HCT-15 = tested on: HCT-15
SK-MEL-2 = tested on: SK-MEL-2
NCI-H23 = tested on: NCI-H23
UO-31 = tested on: UO-31
CCRF-CEM = tested on: CCRF-CEM
SF-268 = tested on: SF-268
SK-OV-3 = tested on: SK-OV-3
SK-MEL-28 = tested on: SK-MEL-28

Compound	GI50 (NCI-H226)	GI50 (TK-10)	GI50 (SK-MEL-5)	GI50 (EKVX)	GI50 (MOLT-4)	GI50 (OVCAR-3)	GI50 (U-251)	GI50 (A498)	GI50 (NCI-H522)	GI50 (K562)	GI50 (COLO 205)	GI50 (UACC-62)	GI50 (HCT-15) [µM]	GI50 (SK-MEL-2)	GI50 (NCI-H23)	GI50 (UO-31)	GI50 (CCRF-CEM)	GI50 (SF-268)	GI50 (SK-OV-3)	GI50 (SK-MEL-28)
Cn1c(=S)c2nc(SCCCc3ccccc3)[nH]c2n(C)c1=O	21.5 µM (inactive)	17.4 µM (inactive)	6.67 µM (inactive)	13.7 µM (inactive)	13.5 µM (inactive)	20.9 µM (inactive)	23.2 µM (inactive)	18.4 µM (inactive)	4.33 µM (inactive)	19.7 µM (inactive)	12.6 µM (inactive)	26.2 µM (inactive)	29.8	40.8 µM (inactive)	16.7 µM (inactive)	14.4 µM (inactive)	6.59 µM (inactive)	32.5 µM (inactive)	42.2 µM (inactive)	46.6 µM (inactive)
O=C1Nc2ccccc2/C1=N/Nc1ccccc1Cl	53.2 µM (inactive)	5.41 µM (inactive)	68.5 µM (inactive)	14.5 µM (inactive)	75.2 µM (inactive)	26.6 µM (inactive)	17.6 µM (inactive)	18.7 µM (inactive)	37.8 µM (inactive)	43.5 µM (inactive)	24.9 µM (inactive)	89.3 µM (inactive)	> 100	63.5 µM (inactive)	42.8 µM (inactive)	18.7 µM (inactive)	45.9 µM (inactive)	29.8 µM (inactive)	16.1 µM (inactive)	> 100 µM (inactive)
Cc1cc2nc(C=C(C(F)(F)F)C(F)(F)F)sc2cc1C	1.21 µM (inactive)	2.34 µM (inactive)	2.49 µM (inactive)	2.15 µM (inactive)	0.11 µM (active)	1.16 µM (inactive)	0.871 µM (active)	4.2 µM (inactive)	0.31 µM (active)	0.0693 µM (active)	1.4 µM (inactive)	1.85 µM (inactive)	1.71	1.73 µM (inactive)	1.46 µM (inactive)	2.53 µM (inactive)	0.0333 µM (active)	3.05 µM (inactive)	7.62 µM (inactive)	3.01 µM (inactive)
O=C1CC2(CCN(CC3COc4ccccc4O3)CC2)C(=O)N1N1CCCCCC1 (stereo not given)	51.9 µM (inactive)	> 100 µM (inactive)	22.7 µM (inactive)	> 100 µM (inactive)	20.7 µM (inactive)	> 100 µM (inactive)	> 100 µM (inactive)	> 100 µM (inactive)	78.5 µM (inactive)	15.6 µM (inactive)	35.9 µM (inactive)	> 100 µM (inactive)	> 100	> 100 µM (inactive)	16.9 µM (inactive)	> 100 µM (inactive)	29.4 µM (inactive)	> 100 µM (inactive)	> 100 µM (inactive)	> 100 µM (inactive)
Cc1cc(NN)nc2[nH]nc(N)c12	> 100 µM (inactive)	> 100 µM (inactive)	> 100 µM (inactive)	> 100 µM (inactive)	43.3 µM (inactive)	> 100 µM (inactive)	> 100 µM (inactive)	> 100 µM (inactive)	> 100 µM (inactive)	> 100 µM (inactive)	> 100 µM (inactive)	> 100 µM (inactive)	> 100	> 100 µM (inactive)	> 100 µM (inactive)	> 100 µM (inactive)	> 100 µM (inactive)	> 100 µM (inactive)	> 100 µM (inactive)	> 100 µM (inactive)
Cc1ccccc1C(=O)N/N=C/c1ccc(Sc2nccn2C)c([N+](=O)[O-])c1	> 100 µM (inactive)	> 100 µM (inactive)	36.4 µM (inactive)	64.9 µM (inactive)	54.6 µM (inactive)	> 100 µM (inactive)	85.1 µM (inactive)	> 100 µM (inactive)	61.9 µM (inactive)	42.4 µM (inactive)	56 µM (inactive)	71.9 µM (inactive)	66.8	68.7 µM (inactive)	> 100 µM (inactive)	> 100 µM (inactive)	36.5 µM (inactive)	> 100 µM (inactive)	> 100 µM (inactive)	> 100 µM (inactive)
